In ChEMBL document CHEMBL4507281, “Data for DCP probe BI-4394” (2021):

How the values were obtained:
[1] = target: SRSF protein kinase 3 (Homo sapiens) (UniProt Q9UPE1); conditions: Compound concentration 100.0 nM
[2] = target: Calcium/calmodulin-dependent protein kinase type 1 (Homo sapiens) (UniProt Q14012); conditions: Compound concentration 100.0 nM
[3] = target: Discoidin domain-containing receptor 2 (Homo sapiens) (UniProt Q16832); conditions: Compound concentration 100.0 nM
[4] = target: Tyrosine-protein kinase CSK (Homo sapiens) (UniProt P41240); conditions: Compound concentration 100.0 nM
[5] = system: Receptor-type tyrosine-protein kinase FLT3 (Homo sapiens), P36888 [K663Q]; conditions: Compound concentration 100.0 nM
[6] = system: Epidermal growth factor receptor (Homo sapiens), P00533 [L858R]; conditions: Compound concentration 100.0 nM
[7] = target: Serine/threonine-protein kinase mTOR (Homo sapiens) (UniProt P42345); conditions: Compound concentration 100.0 nM
[8] = target: Protein kinase C iota type (Homo sapiens) (UniProt P41743); conditions: Compound concentration 100.0 nM
[9] = target: Receptor-interacting serine/threonine-protein kinase 1 (Homo sapiens) (UniProt Q13546); conditions: Compound concentration 100.0 nM
[10] = target: MAP kinase-interacting serine/threonine-protein kinase 2 (Homo sapiens) (UniProt Q9HBH9); conditions: Compound concentration 100.0 nM
[11] = target: Delta-type opioid receptor (Homo sapiens) (UniProt P41143); conditions: Compound concentration 10.0 uM
[12] = target: 5-hydroxytryptamine receptor 2B (Homo sapiens) (UniProt P41595); conditions: Compound concentration 10.0 uM
[13] = target: Mitogen-activated protein kinase kinase kinase 9 (Homo sapiens) (UniProt P80192); conditions: Compound concentration 100.0 nM
[14] = system: Phosphatidylinositol 4,5-bisphosphate 3-kinase catalytic subunit alpha isoform (Homo sapiens), P42336 [H1047L]; conditions: Compound concentration 100.0 nM
[15] = target: Tyrosine-protein kinase JAK1 (Homo sapiens) (UniProt P23458); conditions: Compound concentration 100.0 nM
[16] = target: Tyrosine-protein kinase Lck (Homo sapiens) (UniProt P06239); conditions: Compound concentration 100.0 nM
[17] = system: Proto-oncogene tyrosine-protein kinase receptor Ret (Homo sapiens), P07949 [V804L]; conditions: Compound concentration 100.0 nM
[18] = target: Serine/threonine-protein kinase Nek3 (Homo sapiens) (UniProt P51956); conditions: Compound concentration 100.0 nM
[19] = target: Serine/threonine-protein kinase/endoribonuclease IRE1 (Homo sapiens) (UniProt O75460); conditions: Compound concentration 100.0 nM
[20] = system: Hepatocyte growth factor receptor (Homo sapiens), P08581 [M1250T]; conditions: Compound concentration 100.0 nM
[21] = target: Alpha-2B adrenergic receptor (Homo sapiens) (UniProt P18089); conditions: Compound concentration 10.0 uM
[22] = target: NUAK family SNF1-like kinase 1 (Homo sapiens) (UniProt O60285); conditions: Compound concentration 100.0 nM
[23] = target: Phosphatidylinositol 3-kinase catalytic subunit type 3 (Homo sapiens) (UniProt Q8NEB9); conditions: Compound concentration 100.0 nM
[24] = target: Ribosomal protein S6 kinase alpha-4 (Homo sapiens) (UniProt O75676); conditions: Compound concentration 100.0 nM
[25] = target: Beta-3 adrenergic receptor (Homo sapiens) (UniProt P13945); conditions: Compound concentration 10.0 uM
[26] = target: RAC-alpha serine/threonine-protein kinase (Homo sapiens) (UniProt P31749); conditions: Compound concentration 100.0 nM
[27] = target: cAMP-dependent protein kinase catalytic subunit alpha (Homo sapiens) (UniProt P17612); conditions: Compound concentration 100.0 nM
[28] = target: Mitogen-activated protein kinase kinase kinase kinase 2 (Homo sapiens) (UniProt Q12851); conditions: Compound concentration 100.0 nM
[29] = target: Cyclin-dependent kinase 17 (Homo sapiens) (UniProt Q00537); conditions: Compound concentration 100.0 nM
[30] = target: Cyclin-dependent kinase 13 (Homo sapiens) (UniProt Q14004); conditions: Compound concentration 100.0 nM
[31] = system: Epidermal growth factor receptor (Homo sapiens), P00533 [T790M]; conditions: Compound concentration 100.0 nM
[32] = target: STE20/SPS1-related proline-alanine-rich protein kinase (Homo sapiens) (UniProt Q9UEW8); conditions: Compound concentration 100.0 nM
[33] = target: MAP kinase-activated protein kinase 2 (Homo sapiens) (UniProt P49137); conditions: Compound concentration 100.0 nM
[34] = target: Phosphatidylinositol 3-kinase C2 domain-containing subunit gamma (Homo sapiens) (UniProt O75747); conditions: Compound concentration 100.0 nM
[35] = target: Calcium/calmodulin-dependent protein kinase type II subunit alpha (Homo sapiens) (UniProt Q9UQM7); conditions: Compound concentration 100.0 nM
[36] = target: Ephrin type-A receptor 2 (Homo sapiens) (UniProt P29317); conditions: Compound concentration 100.0 nM
[37] = target: Receptor-type tyrosine-protein kinase FLT3 (Homo sapiens) (UniProt P36888); conditions: Compound concentration 100.0 nM
[38] = target: Serine/threonine-protein kinase PAK 5 (Homo sapiens) (UniProt Q9P286); conditions: Compound concentration 100.0 nM
[39] = target: BDNF/NT-3 growth factors receptor (Homo sapiens) (UniProt Q16620); conditions: Compound concentration 100.0 nM
[40] = target: Myosin-IIIb (Homo sapiens) (UniProt Q8WXR4); conditions: Compound concentration 100.0 nM
[41] = target: Serine/threonine-protein kinase Nek6 (Homo sapiens) (UniProt Q9HC98); conditions: Compound concentration 100.0 nM
[42] = target: Mitogen-activated protein kinase kinase kinase 20 (Homo sapiens) (UniProt Q9NYL2); conditions: Compound concentration 100.0 nM
[43] = target: Cyclin-dependent kinase 16 (Homo sapiens) (UniProt Q00536); conditions: Compound concentration 100.0 nM
[44] = system: Leucine-rich repeat serine/threonine-protein kinase 2 (Homo sapiens), Q5S007 [G2019S]; conditions: Compound concentration 100.0 nM
[45] = target: Macrophage colony-stimulating factor 1 receptor (Homo sapiens) (UniProt P07333); conditions: Compound concentration 100.0 nM

Sequence of Mitogen-activated protein kinase kinase kinase 20 (Homo sapiens) (Q9NYL2 2-800 limits assumed): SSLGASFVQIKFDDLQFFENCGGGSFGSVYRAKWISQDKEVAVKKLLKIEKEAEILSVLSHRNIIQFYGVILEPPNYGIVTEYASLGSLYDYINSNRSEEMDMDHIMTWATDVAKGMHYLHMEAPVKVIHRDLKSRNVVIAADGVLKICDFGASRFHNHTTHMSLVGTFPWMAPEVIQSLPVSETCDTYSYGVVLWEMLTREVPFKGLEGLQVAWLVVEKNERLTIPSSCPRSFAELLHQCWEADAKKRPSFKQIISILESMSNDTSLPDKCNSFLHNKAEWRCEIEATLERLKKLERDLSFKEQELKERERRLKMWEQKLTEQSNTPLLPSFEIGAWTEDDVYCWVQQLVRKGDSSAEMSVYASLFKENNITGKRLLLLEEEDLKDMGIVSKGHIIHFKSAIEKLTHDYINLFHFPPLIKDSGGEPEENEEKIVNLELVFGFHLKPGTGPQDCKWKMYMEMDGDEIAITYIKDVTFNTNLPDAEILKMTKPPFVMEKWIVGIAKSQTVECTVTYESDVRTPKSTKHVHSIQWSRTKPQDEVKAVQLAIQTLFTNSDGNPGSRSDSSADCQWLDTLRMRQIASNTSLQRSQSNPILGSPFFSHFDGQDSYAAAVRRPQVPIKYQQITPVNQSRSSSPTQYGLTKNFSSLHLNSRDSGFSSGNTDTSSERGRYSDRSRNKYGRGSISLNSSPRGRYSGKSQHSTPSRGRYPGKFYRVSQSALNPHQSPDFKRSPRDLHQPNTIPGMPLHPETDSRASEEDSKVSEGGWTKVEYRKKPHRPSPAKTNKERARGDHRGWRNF
Sequence of Proto-oncogene tyrosine-protein kinase receptor Ret (Homo sapiens), P07949 [V804L] (P07949 whole entry V804L): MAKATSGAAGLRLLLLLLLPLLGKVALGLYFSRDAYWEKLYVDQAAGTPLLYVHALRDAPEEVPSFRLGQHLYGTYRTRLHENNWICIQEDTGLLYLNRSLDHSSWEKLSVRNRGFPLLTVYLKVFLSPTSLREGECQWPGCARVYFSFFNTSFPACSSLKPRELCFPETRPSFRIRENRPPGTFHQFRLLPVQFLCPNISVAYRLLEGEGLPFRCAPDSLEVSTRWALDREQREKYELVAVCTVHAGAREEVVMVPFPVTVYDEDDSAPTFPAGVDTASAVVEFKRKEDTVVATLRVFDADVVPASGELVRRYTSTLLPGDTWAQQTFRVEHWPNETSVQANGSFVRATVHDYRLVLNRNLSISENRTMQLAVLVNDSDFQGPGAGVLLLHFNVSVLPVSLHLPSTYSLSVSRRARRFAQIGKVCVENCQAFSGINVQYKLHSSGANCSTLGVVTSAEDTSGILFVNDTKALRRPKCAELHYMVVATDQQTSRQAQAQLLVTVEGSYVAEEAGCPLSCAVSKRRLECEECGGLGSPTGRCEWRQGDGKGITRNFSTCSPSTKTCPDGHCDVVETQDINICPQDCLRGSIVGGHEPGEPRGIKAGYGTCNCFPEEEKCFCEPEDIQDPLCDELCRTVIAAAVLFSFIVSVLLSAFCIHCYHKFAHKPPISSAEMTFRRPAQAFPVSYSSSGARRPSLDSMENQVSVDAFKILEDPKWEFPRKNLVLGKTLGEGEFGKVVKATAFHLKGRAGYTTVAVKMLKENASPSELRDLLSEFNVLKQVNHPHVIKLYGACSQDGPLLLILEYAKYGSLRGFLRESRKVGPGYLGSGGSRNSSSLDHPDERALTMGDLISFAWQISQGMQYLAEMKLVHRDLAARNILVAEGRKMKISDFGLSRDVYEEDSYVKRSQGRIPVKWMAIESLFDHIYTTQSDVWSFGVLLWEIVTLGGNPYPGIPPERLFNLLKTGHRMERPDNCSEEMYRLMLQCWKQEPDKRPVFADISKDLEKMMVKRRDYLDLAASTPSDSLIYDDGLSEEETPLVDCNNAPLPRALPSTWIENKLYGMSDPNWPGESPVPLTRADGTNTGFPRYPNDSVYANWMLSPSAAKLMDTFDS
Sequence of Discoidin domain-containing receptor 2 (Homo sapiens) (Q16832 whole entry, the tested form may be a part): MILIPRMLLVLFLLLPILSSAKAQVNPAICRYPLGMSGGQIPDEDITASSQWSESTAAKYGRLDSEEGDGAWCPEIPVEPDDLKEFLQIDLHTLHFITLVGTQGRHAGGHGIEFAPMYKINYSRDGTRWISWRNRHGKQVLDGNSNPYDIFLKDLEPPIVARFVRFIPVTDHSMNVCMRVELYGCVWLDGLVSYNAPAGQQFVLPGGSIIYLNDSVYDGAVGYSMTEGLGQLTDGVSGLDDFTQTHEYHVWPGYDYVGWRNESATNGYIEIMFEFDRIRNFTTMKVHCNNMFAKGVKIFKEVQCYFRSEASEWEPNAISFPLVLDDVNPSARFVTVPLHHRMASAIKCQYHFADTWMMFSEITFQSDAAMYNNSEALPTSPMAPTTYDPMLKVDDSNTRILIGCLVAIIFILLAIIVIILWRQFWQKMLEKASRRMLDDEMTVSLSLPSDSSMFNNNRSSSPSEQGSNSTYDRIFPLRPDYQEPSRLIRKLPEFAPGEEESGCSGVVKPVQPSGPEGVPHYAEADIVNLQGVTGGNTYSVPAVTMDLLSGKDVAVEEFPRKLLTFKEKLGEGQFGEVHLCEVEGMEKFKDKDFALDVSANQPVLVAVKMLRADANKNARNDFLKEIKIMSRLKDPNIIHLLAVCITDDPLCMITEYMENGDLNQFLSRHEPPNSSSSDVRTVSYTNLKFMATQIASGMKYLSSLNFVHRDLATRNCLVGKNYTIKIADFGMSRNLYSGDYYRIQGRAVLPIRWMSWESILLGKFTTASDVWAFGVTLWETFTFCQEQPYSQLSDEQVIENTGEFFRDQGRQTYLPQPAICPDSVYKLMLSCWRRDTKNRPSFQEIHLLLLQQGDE
Sequence of Phosphatidylinositol 3-kinase C2 domain-containing subunit gamma (Homo sapiens) (O75747 whole entry, the tested form may be a part): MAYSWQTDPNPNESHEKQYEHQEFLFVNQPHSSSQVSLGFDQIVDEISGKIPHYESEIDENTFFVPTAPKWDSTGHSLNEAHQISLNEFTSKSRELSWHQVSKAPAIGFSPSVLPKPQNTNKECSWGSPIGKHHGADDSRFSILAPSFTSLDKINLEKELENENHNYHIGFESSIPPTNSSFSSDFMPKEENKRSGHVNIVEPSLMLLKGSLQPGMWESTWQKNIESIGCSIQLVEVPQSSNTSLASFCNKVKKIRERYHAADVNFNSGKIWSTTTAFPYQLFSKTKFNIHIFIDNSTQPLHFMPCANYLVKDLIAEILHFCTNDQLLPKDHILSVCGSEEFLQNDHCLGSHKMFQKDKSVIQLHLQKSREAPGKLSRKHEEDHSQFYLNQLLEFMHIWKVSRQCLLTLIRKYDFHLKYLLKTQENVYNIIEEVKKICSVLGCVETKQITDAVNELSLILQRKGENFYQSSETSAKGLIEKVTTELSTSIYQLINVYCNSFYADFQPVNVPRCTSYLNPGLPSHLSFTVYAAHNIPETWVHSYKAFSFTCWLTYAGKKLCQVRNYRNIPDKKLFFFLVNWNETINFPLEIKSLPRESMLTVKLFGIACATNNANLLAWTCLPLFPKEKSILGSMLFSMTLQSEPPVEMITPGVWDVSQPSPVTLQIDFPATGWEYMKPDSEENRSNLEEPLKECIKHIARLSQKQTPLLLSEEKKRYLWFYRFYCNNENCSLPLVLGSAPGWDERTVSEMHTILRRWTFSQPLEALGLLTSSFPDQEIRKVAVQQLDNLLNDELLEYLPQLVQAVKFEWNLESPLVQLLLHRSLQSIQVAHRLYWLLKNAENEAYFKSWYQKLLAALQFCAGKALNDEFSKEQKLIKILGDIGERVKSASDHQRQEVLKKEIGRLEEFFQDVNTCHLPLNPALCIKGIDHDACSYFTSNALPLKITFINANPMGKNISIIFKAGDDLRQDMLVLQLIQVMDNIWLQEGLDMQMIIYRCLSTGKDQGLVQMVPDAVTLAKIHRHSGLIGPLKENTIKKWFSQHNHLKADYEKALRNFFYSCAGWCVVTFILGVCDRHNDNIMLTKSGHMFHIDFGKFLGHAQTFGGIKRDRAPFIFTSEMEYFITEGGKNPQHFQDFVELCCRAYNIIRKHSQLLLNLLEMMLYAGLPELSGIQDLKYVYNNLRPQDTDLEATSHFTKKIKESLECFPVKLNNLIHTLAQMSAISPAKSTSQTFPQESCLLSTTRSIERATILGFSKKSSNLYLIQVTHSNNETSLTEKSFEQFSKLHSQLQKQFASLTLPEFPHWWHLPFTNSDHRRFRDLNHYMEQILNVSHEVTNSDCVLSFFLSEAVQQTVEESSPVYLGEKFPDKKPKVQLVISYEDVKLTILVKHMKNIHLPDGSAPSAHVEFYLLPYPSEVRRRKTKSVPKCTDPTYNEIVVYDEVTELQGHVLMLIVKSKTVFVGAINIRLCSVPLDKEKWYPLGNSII
Sequence of Cyclin-dependent kinase 17 (Homo sapiens) (Q00537 whole entry, looked up): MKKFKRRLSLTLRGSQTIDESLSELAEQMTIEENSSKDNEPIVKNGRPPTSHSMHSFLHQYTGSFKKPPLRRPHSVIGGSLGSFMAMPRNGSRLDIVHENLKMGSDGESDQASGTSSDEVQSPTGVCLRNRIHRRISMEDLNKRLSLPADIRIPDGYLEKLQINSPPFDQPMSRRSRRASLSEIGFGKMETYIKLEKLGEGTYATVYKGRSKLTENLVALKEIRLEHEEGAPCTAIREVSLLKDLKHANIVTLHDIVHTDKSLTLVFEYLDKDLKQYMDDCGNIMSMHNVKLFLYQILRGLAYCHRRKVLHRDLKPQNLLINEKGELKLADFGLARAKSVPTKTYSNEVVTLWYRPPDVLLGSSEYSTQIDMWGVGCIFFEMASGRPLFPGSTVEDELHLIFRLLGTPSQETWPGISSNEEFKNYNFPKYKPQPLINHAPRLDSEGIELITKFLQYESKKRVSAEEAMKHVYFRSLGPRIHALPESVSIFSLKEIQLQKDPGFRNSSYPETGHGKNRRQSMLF
Sequence of Serine/threonine-protein kinase Nek6 (Homo sapiens) (Q9HC98 whole entry): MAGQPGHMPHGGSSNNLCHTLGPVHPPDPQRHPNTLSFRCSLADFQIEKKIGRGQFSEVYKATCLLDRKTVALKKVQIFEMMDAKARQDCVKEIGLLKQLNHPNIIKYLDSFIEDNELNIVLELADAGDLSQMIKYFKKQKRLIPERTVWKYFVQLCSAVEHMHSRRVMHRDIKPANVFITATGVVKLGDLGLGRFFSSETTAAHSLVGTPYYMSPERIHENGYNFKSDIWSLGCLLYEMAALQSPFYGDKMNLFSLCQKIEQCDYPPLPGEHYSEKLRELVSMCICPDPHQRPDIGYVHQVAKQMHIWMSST

CCOC(=O)c1cc2cc(-c3cc(C(=O)NCc4ccc(C(=O)O)cc4)nn3C)ccc2[nH]1 [BI 4394]
residual activity [1]: 100% | residual activity [2]: 87% | residual activity [3]: 76% | residual activity [4]: 74% | residual activity [5]: 90% | residual activity [6]: 91% | residual activity [7]: 100% | residual activity [8]: 87% | residual activity [9]: 100% | residual activity [10]: 92% | inhibition [11]: -9.42% | inhibition [12]: 8.13% | residual activity [13]: 100% | residual activity [14]: 100% | residual activity [15]: 100% | residual activity [16]: 94% | residual activity [17]: 99% | residual activity [18]: 88% | residual activity [19]: 90% | residual activity [20]: 87% | inhibition [21]: 16.4% | residual activity [22]: 100% | residual activity [23]: 80% | residual activity [24]: 88% | inhibition [25]: -6.63% | residual activity [26]: 100% | residual activity [27]: 85% | residual activity [28]: 84% | residual activity [29]: 100% | residual activity [30]: 83% | residual activity [31]: 89% | residual activity [32]: 85% | residual activity [33]: 72% | residual activity [34]: 100% | residual activity [35]: 76% | residual activity [36]: 100% | residual activity [37]: 90% | residual activity [38]: 95% | residual activity [39]: 91% | residual activity [40]: 84% | residual activity [41]: 95% | residual activity [42]: 87% | residual activity [43]: 75% | residual activity [44]: 83% | residual activity [45]: 100%

Cn1nc(C(=O)NCc2ccc(C(=O)O)cc2)cc1-c1ccc2[nH]ccc2c1 [BI 4395]
residual activity [1]: 100% | residual activity [2]: 95% | residual activity [3]: 75% | residual activity [4]: 94% | residual activity [5]: 86% | residual activity [6]: 100% | residual activity [7]: 31% | residual activity [8]: 80% | residual activity [9]: 100% | residual activity [10]: 96% | inhibition [11]: 0.8% | inhibition [12]: -2.75% | residual activity [13]: 100% | residual activity [14]: 100% | residual activity [15]: 93% | residual activity [16]: 75% | residual activity [17]: 45% | residual activity [18]: 100% | residual activity [19]: 83% | residual activity [20]: 91% | inhibition [21]: 6% | residual activity [22]: 70% | residual activity [23]: 93% | residual activity [24]: 73% | inhibition [25]: 2.13% | residual activity [26]: 100% | residual activity [27]: 100% | residual activity [28]: 85% | residual activity [29]: 77% | residual activity [30]: 72% | residual activity [31]: 100% | residual activity [32]: 90% | residual activity [33]: 55% | residual activity [34]: 100% | residual activity [35]: 79% | residual activity [36]: 95% | residual activity [37]: 86% | residual activity [38]: 62% | residual activity [39]: 92% | residual activity [40]: 100% | residual activity [41]: 91% | residual activity [42]: 80% | residual activity [43]: 93% | residual activity [44]: 70% | residual activity [45]: 100%
